# Test results as given in patent publication US20030032003A1, “IN VIVO SELECTION” (priority 2000, published 2003).
# Key:
# Hprt +/+ mice [1] = assay: Histopathological analysis of mouse tissues after 6TG
# [2] = test system: Hprt −/− (Hprt deficient) mice; assay: Acute toxicity of 6TG, approximate lethal dose; details: for body weight, percentage of the body weight before the experiment / survival: Hprt −/−, 14 days
# Hprt +/+ mice [3] = assay: Biochemical analysis of mouse serum after 6TG; type: in vivo; details: 25 mg/kg single i.p., serum 14 days after treatment
# Experimental: Serum biochemistry parameters analyzed included blood urea nitrogen (BUN), aspartate amino transferase (AST), alanine amino transferase (ALT), creatine kinase (CK), and alkaline phosphatase (AP). The analyses were performed at Tufts University Veterinary Medical Diagnosis Laboratory with the chemical analyser Hitachi 747. Blood was collected from the posterior vena cava of Hprt deficient mice that were either treated with water, 25, 500, or 720 mg/kg 6TG i.p. and wildtype mice administered 25 mg/kg 6TG.
# Hprt wildtype mice were treated with the sublethal dose of 25 mg/kg 6TG and Hprt mutant mice were treated with the sublethal doses of […] 6TG. Serum samples taken 14 days after treatment were evaluated for the levels of blood urea nitrogen (BUN), aspartate amino transferase (AST), alanine amino transferase (ALT), creatine kinase (CK) and alkaline phosphatase (AP). Elevated BUN is associated with dehydratation and/or renal insufficiency. Elevated activities of ALT and AST are characteristic for liver damage particularly necrosis, cirrhosis and/or hepatitis and also muscle trauma or myocardial infarction or myositis. Elevated AP is associated mostly with increased bone marrow metabolism and also with hapatocellular damage during hepatitis. CK is predominantly located in muscles and therefore its increased activities are consequence of muscular trauma, myocardial infarction or myopathic disorders.
# [4] = Hprt +/+, 6TG lethal 50-720 mg/kg, 7 mice
# [5] = Hprt +/+, 6TG sublethal 25 mg/kg, 2 mice
smiles,measurement,setting,value
"Nc1nc(S)c2[nH]cnc2n1 [6TG, 2-amino-6-merkaptopurine]","Bone marrow Depletion, severity grade","Hprt +/+ mice [1]; Hprt +/+, 25 mg/kg i.p.",3.5 ± 0.5
same,"Bone marrow Depletion, severity grade","Hprt +/+ mice [1]; Hprt +/+, 50 mg/kg i.p.",4
same,"Bone marrow Necrosis, severity grade","Hprt +/+ mice [1]; Hprt +/+, 50 mg/kg i.p.",3
same,"Gastric epithelium Atrophy, severity grade","Hprt +/+ mice [1]; Hprt +/+, 50 mg/kg i.p.",2
same,"Gastric epithelium Necrosis, severity grade","Hprt +/+ mice [1]; Hprt +/+, 50 mg/kg i.p.",1
same,"Intestinal epithelium Atrophy, severity grade","Hprt +/+ mice [1]; Hprt +/+, 50 mg/kg i.p.",2
same,"Intestinal epithelium Necrosis, severity grade","Hprt +/+ mice [1]; Hprt +/+, 50 mg/kg i.p.",1
same,"Liver Atrophy necrosis, severity grade","Hprt +/+ mice [1]; Hprt +/+, 50 mg/kg i.p.",3
same,"Spleen Lymphoid depletion, severity grade","Hprt +/+ mice [1]; Hprt +/+, 50 mg/kg i.p.",1
same,"Bone marrow Depletion, severity grade","Hprt +/+ mice [1]; Hprt +/+, 100 mg/kg i.p.",4
same,"Bone marrow Necrosis, severity grade","Hprt +/+ mice [1]; Hprt +/+, 100 mg/kg i.p.",3
same,"Gastric epithelium Atrophy, severity grade","Hprt +/+ mice [1]; Hprt +/+, 100 mg/kg i.p.",3
same,"Gastric epithelium Necrosis, severity grade","Hprt +/+ mice [1]; Hprt +/+, 100 mg/kg i.p.",3
same,"Intestinal epithelium Atrophy, severity grade","Hprt +/+ mice [1]; Hprt +/+, 100 mg/kg i.p.",3
same,"Intestinal epithelium Necrosis, severity grade","Hprt +/+ mice [1]; Hprt +/+, 100 mg/kg i.p.",3
same,"Liver Atrophy necrosis, severity grade","Hprt +/+ mice [1]; Hprt +/+, 100 mg/kg i.p.",2
same,"Spleen Lymphoid depletion, severity grade","Hprt +/+ mice [1]; Hprt +/+, 100 mg/kg i.p.",1
same,"Spleen Necrosis, severity grade","Hprt +/+ mice [1]; Hprt +/+, 100 mg/kg i.p.",2
same,"Bone marrow Depletion, severity grade","Hprt +/+ mice [1]; Hprt +/+, 150 mg/kg i.p.",4
same,"Bone marrow Necrosis, severity grade","Hprt +/+ mice [1]; Hprt +/+, 150 mg/kg i.p.",4
same,"Gastric epithelium Atrophy, severity grade","Hprt +/+ mice [1]; Hprt +/+, 150 mg/kg i.p.",1
same,"Gastric epithelium Necrosis, severity grade","Hprt +/+ mice [1]; Hprt +/+, 150 mg/kg i.p.",1
same,"Intestinal epithelium Atrophy, severity grade","Hprt +/+ mice [1]; Hprt +/+, 150 mg/kg i.p.",1
same,"Intestinal epithelium Necrosis, severity grade","Hprt +/+ mice [1]; Hprt +/+, 150 mg/kg i.p.",1
same,"Liver Atrophy necrosis, severity grade","Hprt +/+ mice [1]; Hprt +/+, 150 mg/kg i.p.",2
same,"Liver Centrilobular hypertrophy, severity grade","Hprt +/+ mice [1]; Hprt +/+, 150 mg/kg i.p.",2
same,"Spleen Lymphoid depletion, severity grade","Hprt +/+ mice [1]; Hprt +/+, 150 mg/kg i.p.",2
same,"Spleen Necrosis, severity grade","Hprt +/+ mice [1]; Hprt +/+, 150 mg/kg i.p.",2
same,"Bone marrow Depletion, severity grade","Hprt +/+ mice [1]; Hprt +/+, 225 mg/kg i.p.",3
same,"Bone marrow Necrosis, severity grade","Hprt +/+ mice [1]; Hprt +/+, 225 mg/kg i.p.",3
same,"Gastric epithelium Atrophy, severity grade","Hprt +/+ mice [1]; Hprt +/+, 225 mg/kg i.p.",1
same,"Gastric epithelium Necrosis, severity grade","Hprt +/+ mice [1]; Hprt +/+, 225 mg/kg i.p.",1
same,"Intestinal epithelium Atrophy, severity grade","Hprt +/+ mice [1]; Hprt +/+, 225 mg/kg i.p.",1
same,"Intestinal epithelium Necrosis, severity grade","Hprt +/+ mice [1]; Hprt +/+, 225 mg/kg i.p.",1
same,"Liver Atrophy necrosis, severity grade","Hprt +/+ mice [1]; Hprt +/+, 225 mg/kg i.p.",2
same,"Liver Centrilobular hypertrophy, severity grade","Hprt +/+ mice [1]; Hprt +/+, 225 mg/kg i.p.",1
same,"Liver Fatty change, severity grade","Hprt +/+ mice [1]; Hprt +/+, 225 mg/kg i.p.",1
same,"Spleen Lymphoid depletion, severity grade","Hprt +/+ mice [1]; Hprt +/+, 225 mg/kg i.p.",3
same,"Spleen Necrosis, severity grade","Hprt +/+ mice [1]; Hprt +/+, 225 mg/kg i.p.",4
same,"Bone marrow Depletion, severity grade","Hprt +/+ mice [1]; Hprt +/+, 338 mg/kg i.p.",4
same,"Bone marrow Necrosis, severity grade","Hprt +/+ mice [1]; Hprt +/+, 338 mg/kg i.p.",3
same,"Gastric epithelium Atrophy, severity grade","Hprt +/+ mice [1]; Hprt +/+, 338 mg/kg i.p.",3
same,"Gastric epithelium Necrosis, severity grade","Hprt +/+ mice [1]; Hprt +/+, 338 mg/kg i.p.",3
same,"Intestinal epithelium Atrophy, severity grade","Hprt +/+ mice [1]; Hprt +/+, 338 mg/kg i.p.",3
same,"Intestinal epithelium Necrosis, severity grade","Hprt +/+ mice [1]; Hprt +/+, 338 mg/kg i.p.",3
same,"Liver Atrophy necrosis, severity grade","Hprt +/+ mice [1]; Hprt +/+, 338 mg/kg i.p.",1
same,"Liver Centrilobular hypertrophy, severity grade","Hprt +/+ mice [1]; Hprt +/+, 338 mg/kg i.p.",2
same,"Liver Fatty change, severity grade","Hprt +/+ mice [1]; Hprt +/+, 338 mg/kg i.p.",2
same,"Spleen Lymphoid depletion, severity grade","Hprt +/+ mice [1]; Hprt +/+, 338 mg/kg i.p.",2
same,"Spleen Necrosis, severity grade","Hprt +/+ mice [1]; Hprt +/+, 338 mg/kg i.p.",1
same,"Bone marrow Depletion, severity grade","Hprt +/+ mice [1]; Hprt +/+, 507 mg/kg i.p.",3
same,"Bone marrow Necrosis, severity grade","Hprt +/+ mice [1]; Hprt +/+, 507 mg/kg i.p.",4
same,"Gastric epithelium Atrophy, severity grade","Hprt +/+ mice [1]; Hprt +/+, 507 mg/kg i.p.",1
same,"Gastric epithelium Necrosis, severity grade","Hprt +/+ mice [1]; Hprt +/+, 507 mg/kg i.p.",1
same,"Intestinal epithelium Atrophy, severity grade","Hprt +/+ mice [1]; Hprt +/+, 507 mg/kg i.p.",1
same,"Intestinal epithelium Necrosis, severity grade","Hprt +/+ mice [1]; Hprt +/+, 507 mg/kg i.p.",1
same,"Liver Atrophy necrosis, severity grade","Hprt +/+ mice [1]; Hprt +/+, 507 mg/kg i.p.",1
same,"Liver Centrilobular hypertrophy, severity grade","Hprt +/+ mice [1]; Hprt +/+, 507 mg/kg i.p.",1
same,"Liver Fatty change, severity grade","Hprt +/+ mice [1]; Hprt +/+, 507 mg/kg i.p.",2
same,"Spleen Lymphoid depletion, severity grade","Hprt +/+ mice [1]; Hprt +/+, 507 mg/kg i.p.",1
same,"Spleen Necrosis, severity grade","Hprt +/+ mice [1]; Hprt +/+, 507 mg/kg i.p.",2
same,"Bone marrow Depletion, severity grade","Hprt +/+ mice [1]; Hprt +/+, 720 mg/kg i.p.",4
same,"Bone marrow Necrosis, severity grade","Hprt +/+ mice [1]; Hprt +/+, 720 mg/kg i.p.",4
same,"Gastric epithelium Atrophy, severity grade","Hprt +/+ mice [1]; Hprt +/+, 720 mg/kg i.p.",1
same,"Gastric epithelium Necrosis, severity grade","Hprt +/+ mice [1]; Hprt +/+, 720 mg/kg i.p.",1
same,"Intestinal epithelium Atrophy, severity grade","Hprt +/+ mice [1]; Hprt +/+, 720 mg/kg i.p.",1
same,"Intestinal epithelium Necrosis, severity grade","Hprt +/+ mice [1]; Hprt +/+, 720 mg/kg i.p.",1
same,"Liver Atrophy necrosis, severity grade","Hprt +/+ mice [1]; Hprt +/+, 720 mg/kg i.p.",2
same,"Liver Centrilobular hypertrophy, severity grade","Hprt +/+ mice [1]; Hprt +/+, 720 mg/kg i.p.",1
same,"Spleen Lymphoid depletion, severity grade","Hprt +/+ mice [1]; Hprt +/+, 720 mg/kg i.p.",3
same,"Spleen Necrosis, severity grade","Hprt +/+ mice [1]; Hprt +/+, 720 mg/kg i.p.",3
same,"Bone marrow Depletion, average of lesion severity grade",Hprt +/+ mice [1]; [4],3.7 ± 0.5
same,"Bone marrow Necrosis, average of lesion severity grade",Hprt +/+ mice [1]; [4],3.4 ± 0.5
same,"Gastric epithelium Atrophy, average of lesion severity grade",Hprt +/+ mice [1]; [4],1.7 ± 0.9
same,"Gastric epithelium Necrosis, average of lesion severity grade",Hprt +/+ mice [1]; [4],1.6 ± 0.9
same,"Intestinal epithelium Atrophy, average of lesion severity grade",Hprt +/+ mice [1]; [4],1.7 ± 0.9
same,"Intestinal epithelium Necrosis, average of lesion severity grade",Hprt +/+ mice [1]; [4],1.6 ± 1.0
same,"Liver Atrophy necrosis, average of lesion severity grade",Hprt +/+ mice [1]; [4],1.9 ± 0.7
same,"Liver Centrilobular hypertrophy, average of lesion severity grade",Hprt +/+ mice [1]; [4],1.0 ± 0.8
same,"Liver Fatty change, average of lesion severity grade",Hprt +/+ mice [1]; [4],0.7 ± 0.9
same,"Spleen Lymphoid depletion, average of lesion severity grade",Hprt +/+ mice [1]; [4],1.9 ± 0.9
same,"Spleen Necrosis, average of lesion severity grade",Hprt +/+ mice [1]; [4],2.0 ± 1.3
same,"Bone marrow Depletion, average of lesion severity grade",Hprt +/+ mice [1]; [5],3.5 ± 0.5
same,"Bone marrow Necrosis, average of lesion severity grade",Hprt +/+ mice [1]; [5],0.5 ± 0.5
same,"Liver Atrophy necrosis, average of lesion severity grade",Hprt +/+ mice [1]; [5],2.5 ± 0.5
same,starting dose of liver lesions (necrosis and atrophy of hepatocytes),Hprt +/+ mice [1]; Hprt wildtype mice,25 mg/kg
same,lowest dose with liver centrilobular hypertrophy,Hprt +/+ mice [1]; wildtype mice,150 mg/kg
same,lowest dose with liver fatty change,Hprt +/+ mice [1]; wildtype mice,225 mg/kg
same,starting dose of atrophy and/or necrosis of gastrointestinal epithelium,Hprt +/+ mice [1]; wildtype mice,50 mg/kg
same,approximate lethal dose,"[2]; Hprt −/− animals, single i.p.",1148 mg/kg
same,increase of approximate lethal dose over the wildtype strain,[2]; Hprt −/− vs wildtype,23 fold
same,"body weight, percentage of the body weight before the experiment",[2]; 25 mg/kg single i.p.,101%
same,survival,[2]; 25 mg/kg single i.p.,"surv (surv, animals survived the 14 days period)"
same,"body weight, percentage of the body weight before the experiment",[2]; 50 mg/kg single i.p.,102%
same,survival,[2]; 50 mg/kg single i.p.,"surv (surv, animals survived the 14 days period)"
same,"body weight, percentage of the body weight before the experiment",[2]; 100 mg/kg single i.p.,103%
same,survival,[2]; 100 mg/kg single i.p.,"surv (surv, animals survived the 14 days period)"
same,"body weight, percentage of the body weight before the experiment",[2]; 150 mg/kg single i.p.,101%
same,survival,[2]; 150 mg/kg single i.p.,"surv (surv, animals survived the 14 days period)"
same,"body weight, percentage of the body weight before the experiment",[2]; 225 mg/kg single i.p.,100%
same,survival,[2]; 225 mg/kg single i.p.,"surv (surv, animals survived the 14 days period)"
same,"body weight, percentage of the body weight before the experiment",[2]; 338 mg/kg single i.p.,101%
same,survival,[2]; 338 mg/kg single i.p.,"surv (surv, animals survived the 14 days period)"
same,"body weight, percentage of the body weight before the experiment",[2]; 508 mg/kg single i.p.,99%
same,survival,[2]; 508 mg/kg single i.p.,"surv (surv, animals survived the 14 days period)"
same,"body weight, percentage of the body weight before the experiment",[2]; 720 mg/kg single i.p.,101%
same,survival,[2]; 720 mg/kg single i.p.,"surv (surv, animals survived the 14 days period)"
same,"body weight, percentage of the body weight before the experiment",[2]; 1148 mg/kg single i.p.,69%
same,survival,[2]; 1148 mg/kg single i.p.,8.5 days
same,"body weight, percentage of the body weight before the experiment",[2]; 1714 mg/kg single i.p.,93%
same,survival,[2]; 1714 mg/kg single i.p.,4 days
same,"body weight, percentage of the body weight before the experiment",[2]; 2571 mg/kg single i.p.,95%
same,survival,[2]; 2571 mg/kg single i.p.,4 days
same,ALT,Hprt +/+ mice [3],197 ± 66.8 u/l
same,AP,Hprt +/+ mice [3],50.0 ± 33.4 u/l
same,AST,Hprt +/+ mice [3],256.3 ± 73.9 u/l
same,BUN,Hprt +/+ mice [3],45.0 ± 24.6 mg/dL
same,CK,Hprt +/+ mice [3],73.3 ± 13.9 u/l
